# Measured values published in US10793563B2, “GCN2 inhibitors and uses thereof” (Merck Patent GmbH, priority 2018, dated 2020).
# Biological target: GCN2 kinase (Homo sapiens (Human), UniProt Q9P2K8)
# Assay: GCN2 Enzyme Inhibition Assay (Transcreener ADP2 fluorescence polarization)
# Format: biochemical
# Conditions: 280 μM ATP, 200 μM (RS)7 peptide, 4 nM GCN2, 25° C.
# Protocol: Compounds were screened for their ability to inhibit GCN2 kinase activity using a Transcreener® ADP^2 fluorescence polarization assay that detects ADP levels (BellBrook Labs, WI). Assays were carried out in a buffer consisting of 25 mM Tris-HCl (pH 7.5), 50 mM NaCl, 10 mM MgCl2 and 1 mM DTT. […] Assays were carried out at 25° C. in the presence of a (typical) final concentration of 4 nM GCN2 kinase. An assay buffer containing GCN2 kinase and (RS)7 was prepared. […] The plate was incubated for 10 minutes at 25° C. prior to the addition of 4.7 μL of ATP stock buffer to initiate the enzyme reaction. The reaction was allowed to proceed for 1 hour at 25° C., prior to the addition of 10 μL detection buffer (consisting of appropriate concentrations of ADP^2 antibody and ADP Alexa633 tracer in 1× stop and detect buffer as supplied by BellBrook Labs). […] Percentage inhibition of enzyme activity was then calculated at each compound dose. IC50 and Ki(app) (using known assay and kinetic parameters) values were calculated from percentage inhibition data using a non-linear, tight-binding algorithm. All data analysis was undertaken using the Screener® software package (Genedata, Switzerland).
# Chain of GCN2 kinase (Q9P2K8 whole entry): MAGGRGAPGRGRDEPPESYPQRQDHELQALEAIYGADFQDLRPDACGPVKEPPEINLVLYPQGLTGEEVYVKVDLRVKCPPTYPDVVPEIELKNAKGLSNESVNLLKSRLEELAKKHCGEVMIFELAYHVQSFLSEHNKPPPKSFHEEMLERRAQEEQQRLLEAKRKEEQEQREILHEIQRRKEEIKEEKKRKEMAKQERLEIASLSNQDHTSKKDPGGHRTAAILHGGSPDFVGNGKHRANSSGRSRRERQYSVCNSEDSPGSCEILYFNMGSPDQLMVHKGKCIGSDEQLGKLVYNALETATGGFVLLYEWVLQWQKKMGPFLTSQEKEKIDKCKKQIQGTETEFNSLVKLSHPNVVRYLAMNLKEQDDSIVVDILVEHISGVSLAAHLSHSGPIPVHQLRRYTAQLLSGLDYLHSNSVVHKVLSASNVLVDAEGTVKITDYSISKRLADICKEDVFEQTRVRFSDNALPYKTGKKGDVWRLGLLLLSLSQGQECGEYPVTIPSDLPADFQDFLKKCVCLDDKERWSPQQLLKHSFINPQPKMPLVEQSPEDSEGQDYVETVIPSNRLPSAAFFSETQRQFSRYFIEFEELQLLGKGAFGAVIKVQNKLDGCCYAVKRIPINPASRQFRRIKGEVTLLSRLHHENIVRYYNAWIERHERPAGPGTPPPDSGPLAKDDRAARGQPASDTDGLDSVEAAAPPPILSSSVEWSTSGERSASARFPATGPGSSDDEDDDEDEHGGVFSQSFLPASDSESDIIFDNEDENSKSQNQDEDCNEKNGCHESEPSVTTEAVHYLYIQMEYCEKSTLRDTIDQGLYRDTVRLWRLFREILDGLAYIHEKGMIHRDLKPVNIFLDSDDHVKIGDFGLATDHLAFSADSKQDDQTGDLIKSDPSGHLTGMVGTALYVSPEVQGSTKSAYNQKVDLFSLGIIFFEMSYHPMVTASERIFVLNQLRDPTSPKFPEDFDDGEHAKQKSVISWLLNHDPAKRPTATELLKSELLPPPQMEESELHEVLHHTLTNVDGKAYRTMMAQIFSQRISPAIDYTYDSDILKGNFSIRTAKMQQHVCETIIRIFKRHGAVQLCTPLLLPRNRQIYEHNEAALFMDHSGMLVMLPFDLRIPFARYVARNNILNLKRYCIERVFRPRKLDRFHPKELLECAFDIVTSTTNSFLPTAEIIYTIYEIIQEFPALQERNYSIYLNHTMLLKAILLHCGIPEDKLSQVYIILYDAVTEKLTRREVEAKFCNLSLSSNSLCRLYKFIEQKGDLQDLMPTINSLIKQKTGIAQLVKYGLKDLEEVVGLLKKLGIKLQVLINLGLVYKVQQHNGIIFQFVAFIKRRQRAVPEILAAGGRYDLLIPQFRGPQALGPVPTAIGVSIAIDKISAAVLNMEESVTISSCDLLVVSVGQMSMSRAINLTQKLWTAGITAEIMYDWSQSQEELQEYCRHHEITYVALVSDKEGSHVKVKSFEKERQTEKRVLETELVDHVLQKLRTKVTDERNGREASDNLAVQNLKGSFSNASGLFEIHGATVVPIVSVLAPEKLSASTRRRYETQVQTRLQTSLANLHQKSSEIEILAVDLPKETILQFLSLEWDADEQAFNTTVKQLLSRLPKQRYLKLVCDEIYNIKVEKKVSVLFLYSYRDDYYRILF
row,Compound,IC50 [nM]
1,"C[C@@H]1C[C@@H](c2cn[nH]c2)CN(c2nccc(-c3cnc4ccc(Cl)cn34)n2)C1 (stereo in doubt) [I-195, 6-chloro-3-(2-((3R,5S)-3-methyl-5-(1H-pyrazol-4-yl)piperidin-1-yl)pyrimidin-4-yl)imidazo[1,2-a]pyridine]",10 to 100
2,"NC(=O)C1CCCN(c2nc(-c3cnc4ccc(C(F)(F)F)cn34)ncc2F)C1 (stereo in doubt) [I-282, (S)-1-(5-fluoro-2-(6-(trifluoromethyl)imidazo[1,2-a]pyridin-3-yl)pyrimidin-4-yl)piperidine-3-carboxamide]",100 to 1000
3,"O=C([C@H]1C[C@H]1F)N1CCN(c2ccnc(-c3cnc4ccc(C(F)(F)F)cn34)n2)CC1c1cn[nH]c1 (stereo in doubt) [I-485, (2-(1H-pyrazol-4-yl)-4-(2-(6-(trifluoromethyl)imidazo[1,2-a]pyridin-3-yl)pyrimidin-4-yl)piperazin-1-yl)((1R,2R)-2-fluorocyclopropyl)methanone]",10 to 100
4,"O=C([C@H]1C[C@H]1F)N1CCN(c2ccnc(-c3cnc4ccc(C(F)(F)F)cn34)n2)CC1c1cn[nH]c1 (stereo in doubt) [I-489, (2-(1H-pyrazol-4-yl)-4-(2-(6-(trifluoromethyl)imidazo[1,2-a]pyridin-3-yl)pyrimidin-4-yl)piperazin-1-yl)((1R,2R)-2-fluorocyclopropyl)methanone]",10 to 100
5,"N#CC1(C(=O)N2CCN(c3nccc(-c4cnc5ccc(C(F)(F)F)cn45)n3)C[C@@H]2c2cn[nH]c2)CC1 (stereo in doubt) [I-551, 1-(2-(1H-pyrazol-4-yl)-4-(4-(6-(trifluoromethyl)imidazo[1,2-a]pyridin-3-yl)pyrimidin-2-yl)piperazine-1-carbonyl)cyclopropane-1-carbonitrile]",10 to 100
6,"Cc1[nH]ncc1[C@H]1CN(c2ccnc(-c3cnc4ccc(C(F)(F)F)cn34)n2)C[C@@H](C)O1 [I-125, (2R,6S)-2-methyl-6-(5-methyl-1H-pyrazol-4-yl)-4-(2-(6-(trifluoromethyl)imidazo[1,2-a]pyridin-3-yl)pyrimidin-4-yl)morpholine]",< 10
7,"O=C(C1CCCN(c2ccnc(-c3cnc4ccc(C(F)(F)F)cn34)n2)C1)N1CCCC1 (stereo not shown) [I-131, pyrrolidin-1-yl(1-(2-(6-(trifluoromethyl)imidazo[1,2-a]pyridin-3-yl)pyrimidin-4-yl)piperidin-3-yl)methanone]",100 to 1000
8,"COC(=O)C1CC12CCCN(c1ccnc(-c3cnc4ccc(Cl)cn34)n1)C2 (stereo not shown) [I-133, methyl 5-(2-(6-chloroimidazo[1,2-a]pyridin-3-yl)pyrimidin-4-yl)-5-azaspiro[2.5]octane-1-carboxylate]",100 to 1000

# More lines, now with the values ahead:
row,IC50 [nM],Compound
1,100 to 1000,"CC(C)(C)OC(=O)NC1CN(c2ccnc(-c3cnc4ccc(Cl)cn34)n2)CC[C@H]1O (stereo in doubt) [I-243, tert-butyl ((3R,4R)-1-(2-(6-chloroimidazo[1,2-a]pyridin-3-yl)pyrimidin-4-yl)-4-hydroxypiperidin-3-yl)carbamate]"
2,100 to 1000,"NC1CN(c2ccnc(-c3cnc4ccc(Cl)cn34)n2)CC[C@H]1O (stereo in doubt) [I-255, (3R,4R)-3-amino-1-(2-(6-chloroimidazo[1,2-a]pyridin-3-yl)pyrimidin-4-yl)piperidin-4-ol]"
3,< 10,"CC1CN(c2ccnc(-c3cnc4ccc(Cl)cn34)n2)C(C)C(c2cn[nH]c2)N1 (stereo not shown) [I-122, 6-Chloro-3-(4-(2,5-dimethyl-3-(1H-pyrazol-4-yl)piperazin-1-yl)pyrimidin-2-yl)imidazo[1,2-a]pyridine]"
4,10 to 100,"C[C@H]1CN(c2ccnc(-c3cnc4ccc(C(F)(F)F)cn34)n2)C[C@H](C(N)=O)O1 [I-129, (2R,6 S)-6-methyl-4-(2-(6-(trifluoromethyl)imidazo[1,2-a]pyridin-3-yl)pyrimidin-4-yl)morpholine-2-carboxamide]"
5,10 to 100,"NC(=O)C1CC12CCCN(c1ccnc(-c3cnc4ccc(Cl)cn34)n1)C2 (stereo not shown) [I-132, 5-(2-(6-chloroimidazo[1,2-a]pyridin-3-yl)pyrimidin-4-yl)-5-azaspiro[2.5]octane-1-carboxamide]"

# Same assay, conditions: Ki(app); 280 μM ATP, 200 μM (RS)7 peptide, 4 nM GCN2, 25° C.
row,Compound,Ki [nM]
1,"Cc1nnc([C@@H]2CN(c3ccnc(-c4cnc5ccc(C(F)(F)F)cn45)n3)C[C@H](C)O2)o1 (relative stereo) [I-93, cis-2-methyl-6-(5-methyl-1,3,4-oxadiazol-2-yl)-4-{2-[6-(trifluoromethyl)imidazo[1,2-a]pyridin-3-yl]pyrimidin-4-yl}morpholine]",10 to 100
2,"Cc1nnc([C@@H]2CN(c3ccnc(-c4cnc5ccc(C#N)cn45)n3)C[C@H](C)O2)o1 (relative stereo) [I-94, 3-{4-[cis-2-methyl-6-(5-methyl-1,3,4-oxadiazol-2-yl)morpholin-4-yl]pyrimidin-2-yl}imidazo[1,2-a]pyridine-6-carbonitrile]",100 to 1000
3,"Cc1noc([C@@H]2CN(c3ccnc(-c4cnc5ccc(C(F)(F)F)cn45)n3)C[C@H](C)O2)n1 (stereo in doubt) [I-89, 2-methyl-6-(3-methyl-1,2,4-oxadiazol-5-yl)-4-{2-[6-(trifluoromethyl)imidazo[1,2-a]pyridin-3-yl]pyrimidin-4-yl}morpholine]",10 to 100
4,"CS(=O)(=O)N1CCC2(CCCN2c2ccnc(-c3cnc4ccc(C(F)(F)F)cn34)n2)CC1 [I-7, 8-Methylsulfonyl-1-[2-[6-(trifluoromethyl)imidazo[1,2-a]pyridin-3-yl]pyrimidin-4-yl]-1,8-diazaspiro[4.5]decane]",100 to 1000
5,"Cc1noc([C@@H]2CN(c3ccnc(-c4cnc5ccc(C#N)cn45)n3)C[C@H](C)O2)n1 [I-91, 3-{4-[(2S,6S)-2-methyl-6-(3-methyl-1,2,4-oxadiazol-5-yl)morpholin-4-yl]pyrimidin-2-yl}imidazo[1,2-a]pyridine-6-carbonitrile]",10 to 100
6,"Clc1ccc2ncc(-c3nccc(N4CCCC(c5cn[nH]c5)C4)n3)n2c1 (stereo not shown) [I-100, 2-{6-chloroimidazo[1,2-a]pyridin-3-yl}-4-[3-(1H-pyrazol-4-yl)piperidin-1-yl]pyrimidine]",< 10
7,"FC(F)(F)c1ccc2ncc(-c3nccc(N4CCCC(c5cn[nH]c5)C4)n3)n2c1 (stereo not shown) [I-101, 4-[3-(1H-pyrazol-4-yl)piperidin-1-yl]-2-[6-(trifluoromethyl)imidazo[1,2-a]pyridin-3-yl]pyrimidine]",< 10

# Next, values leading:
row,Ki [nM],Compound
1,10 to 100,"Cc1nnc([C@@H]2CN(c3ccnc(-c4cnc5ccc(Cl)cn45)n3)C[C@H](C)O2)o1 (relative stereo) [I-95, cis-4-(2-{6-chloroimidazo[1,2-a]pyridin-3-yl}pyrimidin-4-yl)-2-methyl-6-(5-methyl-1,3,4-oxadiazol-2-yl)morpholine]"
2,10 to 100,"C[C@@H]1CN(c2ccnc(-c3cnc4ccc(C(F)(F)F)cn34)n2)[C@H](C)[C@H](c2cn[nH]c2)N1 (stereo in doubt) [I-38, 3-[4-[2,5-dimethyl-3-(1H-pyrazol-4-yl)piperazin-1-yl]pyrimidin-2-yl]-6-(trifluoromethyl)imidazo[1,2-a]pyridine]"
3,100 to 1000,"O=C1CCN(c2ccnc(-c3cnc4ccc(Cl)cn34)n2)CCN1 [I-26, 1-[2-(6-Chloroimidazo[1,2-a]pyridin-3-yl)pyrimidin-4-yl]-1,4-diazepan-5-one]"
4,100 to 1000,"CS(C)(=O)=NC1CCCN(c2ccnc(-c3cnc4ccc(Cl)cn34)n2)C1 (stereo not shown) [I-30, ((1-(2-(6-Chloroimidazo[1,2-a]pyridin-3-yl)pyrimidin-4-yl)piperidin-3-yl)imino)dimethyl-λ^6-sulfanone]"
5,< 10,"CC1CC(C(N)=O)C(C)N(c2ccnc(-c3cnc4cc(F)c(Cl)cn34)n2)C1 (stereo not shown) [I-52, 1-[2-(6-Chloro-7-fluoro-imidazo[1,2-a]pyridin-3-yl)pyrimidin-4-yl]-2,5-dimethyl-piperidine-3-carboxamide]"
6,100 to 1000,"Cn1cc(NC(=O)[C@H]2CCCN(c3ccnc(-c4cnc5cc(F)c(Cl)cn45)n3)C2)cn1 [I-77, (S)-1-[2-(6-Chloro-7-fluoro-imidazo[1,2-a]pyridin-3-yl)-pyrimidin-4-yl]-piperidine-3-carboxylic acid (1-methyl-1H-pyrazol-4-yl)-amide]"
7,100 to 1000,"N[C@H]1CCCN(c2ccnc(-c3cnc4ccc(Cl)cn34)n2)C1 [I-87, (3S)-1-(2-{6-chloroimidazo[1,2-a]pyridine-3-yl}pyrimidin-4-yl)piperidin-3-amine]"
8,< 10,"O=C1NCCC2CN(c3ccnc(-c4cnc5ccc(Cl)cn45)n3)CCN12 (stereo not shown) [I-96, 2-(2-{6-chloroimidazo[1,2-a]pyridin-3-yl}pyrimidin-4-yl)-octahydro-1H-pyrazino[1,2-c]pyrimidin-6-one]"
9,10 to 100,"O=C1NCC2CN(c3ccnc(-c4cnc5ccc(Cl)cn45)n3)CCN12 (stereo not shown) [I-97, 7-(2-{6-chloroimidazo[1,2-a]pyridin-3-yl}pyrimidin-4-yl)-octahydroimidazo[1,5-a]pyrazin-3-one]"
10,10 to 100,"O=C1OCCC2CN(c3ccnc(-c4cnc5ccc(Cl)cn45)n3)CCN12 (stereo not shown) [I-98, 2-(2-{6-chloroimidazo[1,2-a]pyridin-3-yl}pyrimidin-4-yl)-octahydropyrazino[1,2-c][1,3]oxazin-6-one]"
11,10 to 100,"O=C1OCC2CN(c3ccnc(-c4cnc5ccc(Cl)cn45)n3)CCN12 (stereo not shown) [I-99, 7-(2-{6-chloroimidazo[1,2-a]pyridin-3-yl}pyrimidin-4-yl)-hexahydro-1H-[1,3]oxazolo[3,4-a]pyrazin-3-one]"
